Here are results for three compounds from the NIST ThermoML archive (doi:10.1021/je300076y).

Numbers after ± are expanded uncertainties.

A short description of series [1]: refractive index (Na D-line) (dimensionless). Particulars: 101.33 kPa, Liquid, Standard Abbe refractometry.
The conditions of series [2]: Liquid; for mass density: 293.15 K, 101.33 kPa, Vibrating tube method.

Take `CC(C)(C)O` [2-methylpropan-2-ol]: the refractive index in series [1] (293.15 K) was 1.3877 ± 0.0007. Further, the mass density in series [2] is 788.4 ± 0.3 kg/m3. Also, the “vapor or sublimation pressure” value in series [2] (353.61 K) and in series [2] (353.71 K) was 95.5 ± 2.5 kPa each time.
For `CC(=O)c1ccccc1` [acetophenone], the refractive index in series [1] (293.1 K) was 1.537 ± 0.0008. The mass density in series [2] is recorded as 1024.5 ± 0.3 kg/m3. In addition, in series [2] (472.25 K), the “vapor or sublimation pressure” value stood at 95.5 ± 2.5 kPa.
In the case of `CCO[Si](OCC)(OCC)OCC` [tetraethoxysilane], in series [1] (293.15 K), the refractive index is reported as 1.3835 ± 0.0007. For the same compound, the mass density in series [2] was determined as 935 ± 0.3 kg/m3. For the same compound, in series [2] (439.35 K), the “vapor or sublimation pressure” value is given as 95.5 ± 2.5 kPa.

By refractive index is commonly meant the speed of light in vacuum divided by its phase velocity in the sample. The term mass density denotes the mass of a sample divided by its volume. The term vapor or sublimation pressure denotes the equilibrium pressure above the liquid or solid.
